According to patent US10982174B2, “Synergistic surfactant blends” (STEPAN COMPANY, priority 2012, dated 2021):

What was measured:
Assay type in all cases: physicochemical
[1] = Interfacial tension (IFT), pendant drop tensiometer, against light mineral oil; conditions: individual surfactant, ambient temperature, in mN/m (unit assumed)
Experimental: Interfacial tension is measured by any suitable method. […] The expected IFT value for a blend is calculated based on ideal mixing (non-synergistic) using the active component in each blend. The equation used is: Expected IFT=X·IFTA+(1−X)·IFTB where X is the actives % of Component A, IFTA is the IFT of Component A, and IFTB is the IFT of Component B.
If the measured IFT for a blend is less than the expected IFT, the blend is synergistic; if the measured IFT for a blend is greater than the expected IFT, the blend is antagonistic.
Interfacial tension (IFT) of all the individual components and their blends is measured at a given % active against light mineral oil at ambient temperature using a Kruss DSA-20 pendent drop tensiometer.

[2] = Critical micelle concentration (CMC) and beta parameter (synergy)
Experimental: Synergy can also be evaluated with respect to a blend's beta parameter (β), which can be calculated from the measured critical micelle concentration. Suitable methods for calculating β have been described previously (see, e.g., U.S. Pat. No. 5,360,571, the teachings of which are incorporated herein by reference).
Conveniently, the critical micelle concentration of a blend is measured at dilute concentrations in deionized water with pH adjusted to be within the range of 6 to 7. Critical micelle concentration generally refers to the minimum concentration of surfactant (in mg/L) needed to support micelle formation. The measurement can be performed, for instance, using a Krüss K12 tensiometer at 25° C. Once the critical micelle concentration is measured, the value of β can be found from:
where X is the total mole fraction of Surfactant 1 in the mixed micelles; α is the mole fraction of Surfactant 1 in solution; C1, C2, and C12 are the critical micelle concentrations of Surfactant 1, Surfactant 2, and their mixture; and β is the interaction parameter.
A negative value of β indicates synergy, while a positive value of β indicates antagonism, and values close to zero indicate little or no synergy.
The critical micelle concentration (CMC) of a blend is measured at a diluted concentration in deionized water with pH adjusted to 6-7. The measurement is done at 25° C. using a Kruss K100 tensiometer. The synergy of the blends, indicated by the beta parameter, is calculated based on the CMC data using the equation, β=[In(αA12/XA1)]/(1−X)^2 in which α is the mole fraction of the anionic surfactant in solution, X is the mole fraction of the anionic surfactant in mixed micelles, A1 is the critical micelle concentration of the anionic surfactant, and A12 is the critical micelle concentration of the blend.

[3] = Appearance / solubility of surfactant blends, neat and diluted with deionized water; conditions: SLS/Quat (molar) 0:1
Experimental: All of the surfactant blends tested are prepared at the designated molar ratios without any pH adjustment. Dilutions are made using deionized water to the desired actives level. Actives amounts are wt. % unless indicated otherwise. Appearances are reported at ambient temperature for samples prepared within the last 24 h.

[4] = deionized water, pH 6-7, 25° C.

| SMILES | IFT (0.1% actives) [1] | Appearance 0.01% actives [3] | Appearance 0.2% actives [3] | Appearance concentrate [3] | also measured |
| --- | --- | --- | --- | --- | --- |
| C=CCCCCCCCC[N+](C)(C)C [C10-42, C10 Amine DMS Quat] | 42.0 | – | – | – | – |
| C=CCCCCCCCC(=O)OCC[N+](C)(C)C [C10-7, C10 DMEA Ester Quat] | – | – | – | – | Surface tension at CMC (mN/m) [2]: 41.1 mN/m; CMC (mg/L) [2, 4]: 342.6 mg/L; CMC (mol/L) [2, 4]: 0.000932 mol/L |
| C=CCCCCCCCC(=O)NCCC[N+](C)(C)C [C10-18, C10 DMAPA Quat] | – | clear | clear | solid | – |
| C=CCCCCCCCC(=O)OC(CCCCCCCC(=O)[O-])CS(=O)(=O)[O-].[Na+].[Na+] (centres unmarked) [C10-32, C10 UFA SLA] | 25.9 | – | – | – | – |
| CC/C=C/CCCCCCCC(=O)NCCC[N+](C)(C)C [C12-18] | – | clear | clear | solid | – |
